Measurements: US20200361871A1 (Enterprise Therapeutics Ltd., priority 2018, published 2020)

Molecular target: human TMEM16A (TMEM16Aabc variant) (Homo sapiens, UniProt Q5XXA6, DEL476-501, form not given)
Test: Automated whole-cell patch clamp (Qpatch) TMEM16A potentiator assay in FRT cells stably expressing human TMEM16A
Type: cell-based
Settings: for % Potentiation @ 3.33 μM Avg: 3.33 μM solution of test compound, percentage increase of baseline TMEM16A current; for EC50: calculated EC50, Qpatch TMEM16A current at +70 mV
In short: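 Potentiation was read as the rise in peak +70 mV current over baseline (%), from cumulative 5-min additions of compound. Recordings used whole-cell automated patch of FRT cells stably carrying human TMEM16Aabc, with pipette Ca2+ buffered to give ~20% maximal current. EC50 and efficacy came from concentration-response fits.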

Chain of human TMEM16A (TMEM16Aabc variant) (Q5XXA6 with tags, fused parts or gaps DEL476-501): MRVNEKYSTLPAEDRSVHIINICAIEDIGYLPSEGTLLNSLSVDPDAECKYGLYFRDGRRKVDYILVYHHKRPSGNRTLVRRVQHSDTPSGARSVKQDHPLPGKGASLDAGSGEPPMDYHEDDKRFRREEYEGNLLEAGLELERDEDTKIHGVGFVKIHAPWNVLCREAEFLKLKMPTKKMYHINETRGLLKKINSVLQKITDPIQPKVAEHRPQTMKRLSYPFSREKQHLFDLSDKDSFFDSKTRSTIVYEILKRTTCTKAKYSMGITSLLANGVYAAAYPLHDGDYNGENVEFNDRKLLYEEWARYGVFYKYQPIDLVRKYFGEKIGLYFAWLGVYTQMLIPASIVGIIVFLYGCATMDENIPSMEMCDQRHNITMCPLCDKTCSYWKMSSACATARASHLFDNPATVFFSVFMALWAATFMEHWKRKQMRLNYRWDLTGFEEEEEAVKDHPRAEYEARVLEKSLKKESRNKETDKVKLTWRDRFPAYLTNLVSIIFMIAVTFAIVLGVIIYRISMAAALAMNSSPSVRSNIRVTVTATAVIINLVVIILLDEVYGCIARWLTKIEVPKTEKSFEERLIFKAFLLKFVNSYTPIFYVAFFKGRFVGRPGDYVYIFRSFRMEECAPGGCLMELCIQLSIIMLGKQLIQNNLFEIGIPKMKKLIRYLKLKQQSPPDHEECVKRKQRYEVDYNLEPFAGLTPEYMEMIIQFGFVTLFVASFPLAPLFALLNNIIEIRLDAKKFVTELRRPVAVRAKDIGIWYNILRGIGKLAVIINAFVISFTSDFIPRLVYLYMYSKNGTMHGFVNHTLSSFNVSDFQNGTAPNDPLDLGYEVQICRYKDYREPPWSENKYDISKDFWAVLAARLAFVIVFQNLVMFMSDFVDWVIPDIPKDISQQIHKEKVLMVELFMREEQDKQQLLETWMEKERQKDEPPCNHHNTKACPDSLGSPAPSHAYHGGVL

SMILES | % Potentiation @ 3.33 μM Avg [%] | EC50 [nM]
CC(CC(=O)Nc1ccnc(C(=O)NC(C)(C)C#N)c1)c1ccc(F)cc1 (stereo not drawn) [Example 83.31, N-(1-Cyano-1-methyl-ethyl)-4-[3-(4-fluorophenyl)butanoylamino]pyridine-2-carboxamide] | 78 | –
CC(C)(C)NC(=O)c1ccc(F)c(NC(=O)Cc2cc(Cl)ccc2O)c1 [Example 9, N-tert-Butyl-3-[[2-(5-chloro-2-hydroxy-phenyl)acetyl]amino]-4-fluoro-benzamide] | 149 | 230
CC(C)(CCNC(=O)C(C)(C)C)NC(=O)c1cc(NC(=O)Cc2cc(Cl)ccc2O)ccn1 [Example 45, 4-[[2-(5-Chloro-2-hydroxy-phenyl)acetyl]amino]-N-[3-(2,2-dimethylpropanoylamino)-1,1-dimethyl-propyl]pyridine-2-carboxamide] | 151 | –
N#CC1(NC(=O)c2cc(NC(=O)Cc3ccc(Cl)cc3)ccn2)CC1 [Example 23, 4-[[2-(4-Chlorophenyl)acetyl]amino]-N-(1-cyanocyclopropyl)pyridine-2-carboxamide] | 93 | –
O=C(Cc1ccccc1Cl)Nc1ccnc(C(=O)NC2CCOCC2)c1 [Example 23.9, 4-[[2-(2-Chlorophenyl)acetyl]amino]-N-tetrahydropyran-4-yl-pyridine-2-carboxamide] | 47 | –
CC(C)(C)NC(=O)c1cc(NC(=O)NCc2ccccc2Cl)ccn1 [Example 64.5, N-tert-Butyl-4-[(2-chlorophenyl)methylcarbamoylamino]pyridine-2-carboxamide] | 143 | 450
CC(C)(C)NC(=O)c1cc(NC(=O)Cc2cccc(F)c2)ccn1 [Example 5.9, N-tert-Butyl-4-[[2-(3-fluorophenyl)acetyl]amino]pyridine-2-carboxamide] | 126 | 1130
CCCC(C)(C)NC(=O)c1cc(NC(=O)Cc2cc(Cl)ccc2O)ccn1 [Example 7.2, 4-[[2-(5-Chloro-2-hydroxy-phenyl)acetyl]amino]-N-(1,1-dimethylbutyl)pyridine-2-carboxamide] | 203 | 260
C#CC(C)(C)NC(=O)c1cc(NC(=O)Cc2cccc3[nH]ncc23)ccn1 [Example 79.2, N-(1,1-Dimethylprop-2-ynyl)-4-[[2-(1H-indazol-4-yl)acetyl]amino]pyridine-2-carboxamide] | 211 | –
O=C(Cc1cc(Cl)ccc1O)Nc1ccnc(C(=O)N[C@H]2CC[C@@H](O)CC2)c1 [Example 7.12, 4-[2-(5-Chloro-2-hydroxyphenyl)acetamido]-N-[(1s,4s)-4-hydroxycyclohexyl]pyridine-2-carboxamide] | 101 | 2110
COc1cccc(CC(=O)Nc2cccc(C(=O)NC(C)(C)C)c2)c1O [Example 2.8, N-tert-Butyl-3-[[2-(2-hydroxy-3-methoxy-phenyl)acetyl]amino] benzamide] | 74 | 4550
O=C(Cc1cc(Cl)ccc1O)Nc1cccc(C(=O)NC2(CO)CCOC2)c1 (stereo not drawn) [Example 74.1, 3-[[2-(5-Chloro-2-hydroxy-phenyl)acetyl]amino]-N-[3-(hydroxymethyl)tetra hydrofuran-3-yl]benzamide] | 49 | –
CC(C)(C)NC(=O)c1cc(NC(=O)C2CCc3ccccc32)ccn1 (stereo not drawn) [Example 5.22, N-tert-Butyl-4-(indane-1-carbonylamino)pyridine-2-carboxamide] | 94 | –
CC(=O)NCCC(C)(C)NC(=O)c1cc(NC(=O)Cc2cc(Cl)ccc2O)ccn1 [Example 51, N-(3-Acetamido-1,1-dimethyl-propyl)-4-[[2-(5-chloro-2-hydroxy-phenyl)acetyl]amino]pyridine-2-carboxamide] | 54 | –
N#CC1(NC(=O)c2cccc(NC(=O)Cc3cc(Cl)ccc3O)c2)CCOC1 (stereo not drawn) [Example 71, 3-[[2-(5-Chloro-2-hydroxy-phenyl)acetyl]amino]-N-(3-cyanotetrahydrofuran-3-yl)benzamide] | 162 | –
CC(C)(C#N)NC(=O)c1cc(NC(=O)c2ccnn2CC(F)(F)F)ccn1 [Example 83.19, N-(1-Cyano-1-methyl-ethyl)-4-[[2-(2,2,2-trifluoroethyl)pyrazole-3-carbonyl]amino]pyridine-2-carboxamide] | 28 | –
O=C(Cc1cc(Cl)ccc1O)Nc1ccnc(C(=O)NC2CCCCC2)c1 [Example 1.10, 4-[[2-(5-Chloro-2-hydroxy-phenyl)acetyl]amino]-N-cyclohexyl-pyridine-2-carboxamide] | 200 | 80
CC(C)(C)NC(=O)c1cc(NC(=O)Cc2cccs2)ccn1 [Example 5, N-tert-Butyl-4-[[2-[2-thienyl]acetyl]amino]pyridine-2-carboxamide] | 78 | 800

SMILES | % Potentiation @ 3.33 μM Avg [%] | EC50 [nM]
O=C(Cc1cc(Cl)ccc1O)Nc1ccnc(C(=O)NC23CC4CC(CC(C4)C2)C3)c1 [Example 1.3, N-(1-Adamantyl)-4-[[2-(5-chloro-2-hydroxy-phenyl)acetyl]amino]pyridine-2-carboxamide] | 233 | 240
O=C(Cc1cc(F)ccc1F)Nc1ccnc(C(=O)NC23CCC(F)(C2)C3)c1 [Example 77.1, 4-[[2-(2,5-Difluorophenyl)acetyl]amino]-N-(4-fluoro-1-bicyclo[2.1.1]hexanyl) pyridine-2-carboxamide] | 151 | 540
CC(C)(C)NC(=O)c1cc(NC(=O)Cc2cc(Cl)c(CN3CCOCC3)cc2O)ccn1 [Example 27.2, N-tert-Butyl-4-[[2-[5-chloro-2-hydroxy-4-(morpholinomethyl)phenyl]acetyl]amino]pyridine-2-carboxamide] | 300 | –
CC(C)(C)NC(=O)c1cc(NC(=O)CC2C3CC4CC(C3)CC2C4)ccn1 (stereo not drawn) [Example 5.1, 4-[[2-(2-Adamantyl)acetyl]amino]-N-tert-butyl-pyridine-2-carboxamide] | 140 | 870
COc1cc(C(F)(F)F)ccc1CC(=O)Nc1cccc(C(=O)NC(C)(C)C)c1 [Example 4.9, N-tert-Butyl-3-[[2-[2-methoxy-4-(trifluoromethyl)phenyl]acetyl]amino]benzamide] | 60 | 4660
CC(C)(C)NC(=O)c1cccc(NC(=O)Cc2cc(Cl)ccc2O)c1 [Example 2, N-tert-Butyl-3-[[2-(5-chloro-2-hydroxy-phenyl)acetyl]amino]benzamide] | 262 | 270
CC(C)(C)NC(=O)c1cccc(NC(=O)CCc2ccccc2O)c1 [Example 2.5, N-tert-Butyl-3-[3-(2-hydroxyphenyl)propanamido]benzamide] | 51 | 1340
Cc1ccc(O)c(CC(=O)Nc2ccnc(C(=O)NC(C)(C)C)c2)c1 [Example 15, N-tert-Butyl-4-[[2-(2-hydroxy-5-methyl-phenyl)acetyl]amino]pyridine-2-carboxamide] | 200 | 130
C#CC(C)(C)NC(=O)c1cc(NC(=O)Cc2ccc(C(C)(C)C)c(O)c2)ccn1 [Example 93.5, 4-[[2-(4-tert-Butyl-3-hydroxy-phenyl)acetyl]amino]-N-(1,1-dimethylprop-2-ynyl)pyridine-2-carboxamide] | 136 | 20
N#CC1(NC(=O)c2cc(NC(=O)Cc3ccccc3Cl)ccn2)CCCC1 [Example 30.12, 4-[[2-(2-Chlorophenyl)acetyl]amino]-N-(1-cyanocyclopentyl)pyridine-2-carboxamide] | 314 | –
CC(C)(C)NC(=O)c1cc(NC(=O)Cc2ccc(C(C)(C)C)c(O)c2)ccn1 [Example 89, N-tert-Butyl-4-[[2-(4-tert-butyl-3-hydroxy-phenyl)acetyl]amino]pyridine-2-carboxamide] | 366 | 90
COc1cc(F)ccc1CC(=O)Nc1ccnc(C(=O)NC(C)(C)C)c1 [Example 5.2, N-tert-Butyl-4-[[2-(4-fluoro-2-methoxy-phenyl)acetyl]amino]pyridine-2-carboxamide] | 63 | –
CC(C)(C)NC(=O)c1cc(NC(=O)NCc2ccccc2)ccn1 [Example 64, 4-(Benzylcarbamoylamino)-N-tert-butyl-pyridine-2-carboxamide] | 55 | –
CC(C)(C)NC(=O)c1cc(NC(=O)Cc2ccc3ncccc3c2)ccn1 [Example 5.29, N-tert-Butyl-4-[[2-(6-quinolyl)acetyl]amino]pyridine-2-carboxamide] | 190 | 860
C#CC(C)(C)NC(=O)c1cc(NC(=O)CC2CCC(F)(F)CC2)ccn1 [Example 5.34, 4-[[2-(4,4-Difluorocyclohexyl)acetyl]amino]-N-(1,1-dimethylprop-2-ynyl)pyridine-2-carboxamide] | 185 | 640
N#CC1(NC(=O)c2cc(NC(=O)Cc3cc(Cl)ccc3O)ccn2)CCOCC1 [Example 31, 4-[[2-(5-Chloro-2-hydroxy-phenyl)acetyl]amino]-N-(4-cyanotetrahydropyran-4-yl)pyridine-2-carboxamide] | 223 | 120
COc1ccc(Cl)c(CC(=O)Nc2ccnc(C(=O)NC3(C#N)CC3)c2)c1 [Example 24, 4-[[2-(2-Chloro-5-methoxy-phenyl)acetyl]amino]-N-(1-cyanocyclopropyl)pyridine-2-carboxamide] | 68 | –
CC1(NC(=O)c2cc(NC(=O)Cc3cc(Cl)ccc3O)ccn2)CCOCC1 [Example 7.9, 4-[[2-(5-Chloro-2-hydroxy-phenyl)acetyl]amino]-N-(4-methyltetrahydropyran-4-yl)pyridine-2-carboxamide] | 288 | 230
